One assay deals with ANA1 cells. Kind of assay: Binding of biotinylated Hsp70 / Hsp70-peptide C-biotin to ANA1 macrophage cells, fluorescence microscopy. It is filed as cell-based, murine. The note with it: 100 nM biotinylated protein. How it is done:
Cell culture and fluorescence microscopy. The murine macrophage cell line ANA1 was kindly provided by H. Wagner (Munich, Germany). ANA-1 cells were cultured in VLE-RPMI 1640 (Biochrom), supplemented with 10% FCS, 2 mM L-glutamine and antibiotics. For fluorescence microscopy, ANA1 cells were either stimulated with LPS (20 μg/ml, Sigma, Germany), or kept in an LPS-free medium (mock treatment) for 7 h. After stimulation, cells were harvested and incubated with 100 nM biotinylated Hsp70, biotinylated GST, or Hsp70/peptide C-biotin complex for 30 min at 0° C. in VLE-RPMI 1640. After incubation cells were processed for staining with streptavidin-TRITC (Sigma, Germany), fixed with paraformaldehyde and analyzed by fluorescence microscopy (Axiovert 35, Zeiss) as described (Sondermann et al., 2000). […] Twenty-four h post-transfection cells were incubated with 250 nM biotinylated Hsp70, biotinylated GST or Hsp70/peptide C-biotin complex for 30 min at 0° C. in DMEM, fixed, stained with streptavidin-TRITC (Sigma, Germany), and analyzed by fluorescence microscopy as described (Sondermann et al., 2000, idem). […] Stably transfected cell lines were analyzed by immunoblotting for CD40 expression using an anti-CD40 antibody (CSA180, Stressgen). […]
Details for FIG. 1. […] After 30 min at 4° C. cells were washed, incubated with TRITC-labeled streptavidin, washed again, and processed for fluorescence microscopy. […]

The target in a further assay is T1, endogenous CD40 (Mus musculus, UniProt P27512).
T1 construct: endogenous CD40 in extracts of LPS-stimulated ANA1-cells; endogenous in cells; host or cells: ANA1 murine macrophage cell line, LPS-stimulated
T1 sequence (P27512 20-289): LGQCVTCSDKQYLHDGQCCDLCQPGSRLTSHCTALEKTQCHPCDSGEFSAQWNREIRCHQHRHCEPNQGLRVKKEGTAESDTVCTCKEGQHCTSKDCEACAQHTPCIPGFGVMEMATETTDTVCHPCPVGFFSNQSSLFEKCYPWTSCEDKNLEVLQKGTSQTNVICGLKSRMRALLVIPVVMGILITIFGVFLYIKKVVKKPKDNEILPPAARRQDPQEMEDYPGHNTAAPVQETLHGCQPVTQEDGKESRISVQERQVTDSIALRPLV
Kind of assay: Binding assay with His6-tagged Hsp70 and Ni-NTA-agarose, ANA1 cell lysate. Also on record: species or system murine. To be noted: His-tagged Hsp70, with or without ADP. How it is done: Binding assay with His6-tagged Hsp70 and Ni-NTA-agarose. ANA1-cells were stimulated with LPS as described above and lysed in lysis buffer (150 mM Tris/HCl, ph 7,5, 1% CHAPS) for 45 min at 4° C. Cell lysate was centrifuged at 100,000 g for 15 min at 4° C. […] of the supernatant was incubated with 10 μg of His6-tagged Hsp70, preincubated with ADP and a 30-fold excess of peptide C, or mock treated, as described above for biotinylated proteins, for 30 min at 4° C. Thereafter the samples were added to 20 μl of 1% BSA-treated Ni-NTA-agarose (Quiagen) and incubated for 30 min at 4° C. Unbound protein was removed by washing the beads three times with 1 ml lysis buffer, and immobilized proteins eluted with 10 μl SDS-PAGE-sample buffer by incubation for 5 min at 95° C. Eluates were analyzed by immunoblotting using an anti-CD40 antibody (CSA-180, Stressgen).
Details for FIG. 3. […] Thereafter samples were affinity purified on glutathione-Sepharose as outlined in Experimental Procedures, subjected to SDS-PAGE and analyzed by immunoblotting with antibodies directed against Hsc70 and Hsp70 (upper lanes), and against Hsp90 (lower lanes). […] After affinity purification samples were analyzed by immunoblotting as described in A, using antibodies directed against the His6-tag. […] Protein bound to Hsp70 was analyzed by affinity purification on Ni-NTA-agarose and immunoblotting with antibodies directed against CD40.

“Hsp70: Recombinant human heat shock protein 70, expressed and purified as His-tagged protein”: the “binding to LPS-stimulated ANA-1 cells” value with ANA1 cells (LPS 20 μg/ml 7 h) is on record as “significant increase in binding”. In the assay with ANA1 cells (mock treated cells, 30 min, streptavidin-TRITC), the “binding to unstimulated ANA-1 cells” value is “weak but clearly detectable binding”. In addition, in the assay with endogenous CD40, the “interaction with endogenous CD40 in extracts of LPS-stimulated ANA1-cells” value is given as “interacted, in an ADP-dependent manner”.

The values are drawn from patent US20040071656A1, “Modulation of heat-shock-protein-based immunotherapies” (priority 2001, published 2004).
